These are literature values, as cited in patent US20070123548A1, “Pth agonists” (priority 2004, published 2007).

The conditions of the data set: daily subcutaneous injection for up to 2 years.

For `CC[C@H](C)[C@H](NC(=O)[C@H](CCC(=O)O)NC(=O)[C@H](CO)NC(=O)[C@@H](NC(=O)[C@@H](N)CO)C(C)C)C(=O)N[C@@H](CCC(N)=O)C(=O)N[C@@H](CC(C)C)C(=O)N[C@@H](CCSC)C(=O)N[C@@H](Cc1cnc[nH]1)C(=O)N[C@@H](CC(N)=O)C(=O)N[C@@H](CC(C)C)C(=O)NCC(=O)N[C@@H](CCCCN)C(=O)N[C@@H](Cc1cnc[nH]1)C(=O)N[C@@H](CC(C)C)C(=O)N[C@@H](CC(N)=O)C(=O)N[C@@H](CO)C(=O)N[C@@H](CCSC)C(=O)N[C@@H](CCC(=O)O)C(=O)N[C@@H](CCCN=C(N)N)C(=O)N[C@H](C(=O)N[C@@H](CCC(=O)O)C(=O)N[C@@H](Cc1c[nH]c2ccccc12)C(=O)N[C@@H](CC(C)C)C(=O)N[C@@H](CCCN=C(N)N)C(=O)N[C@@H](CCCCN)C(=O)N[C@@H](CCCCN)C(=O)N[C@@H](CC(C)C)C(=O)N[C@@H](CCC(N)=O)C(=O)N[C@@H](CC(=O)O)C(=O)N[C@H](C(=O)N[C@@H](Cc1cnc[nH]1)C(=O)N[C@@H](CC(N)=O)C(=O)N[C@@H](Cc1ccccc1)C(=O)O)C(C)C)C(C)C` [PTH(1-34)], the “Reduction of fracture incidence at non-vertebral sites” value is 40% and the “Reduction of fracture incidence at the spine” value is on record as 65%.
